Tests used:
C33A cells = assay: TRAIL-mediated apoptosis in HPV− C33A cells (MTT); assay type: cell-based, human; details: 100 μM myricetin pretreatment 4 h, TRAIL + cycloheximide
Protocol: Figure 5 Myricetin and spinacine (5) can re-sensitize HPV^+, but not HPV^−, cells to treatment with TRAIL. SiHa (2 × 10^4 cells per well) and C33A cells (1 × 10^4 cells per well) were seeded into a 96-well plate and allowed to incubate overnight, and then cells were pretreated in the presence or absence of (a) myricetin (100 μM) or (b) spinacine (50 μM) for 4 h. The indicated concentration of TRAIL along with cycloheximide (5 μg/ml) was added, and the cells were allowed to incubate overnight. Cell viability was measured by MTT assay, and the viability of cells untreated with TRAIL was set at 100%. Experiments were performed in triplicate, and error bars indicate the S.D.
The extracellular domain of human TRAIL was cloned into a pTriEx expression plasmid containing N-terminal Hisx6 tag. His-TRAIL was expressed in the E. coli BL-21 pLys strain and purified as previously described. Doxorubicin and cisplatin were purchased from Sigma. His-TRAIL, doxorubicin, and cisplatin were diluted in PBS to the desired concentration before using. […] All experiments were repeated at least three times (three biological replicates, carried out on different days), with each experimental group measured in triplicate within each of these individual experiments. […]

GST-E6/His-caspase 8 = molecular target: T1, GST-E6/His-caspase 8 (Human papillomavirus type 16, UniProt P03126); assay: AlphaScreen bead-based binding assay GST-E6/His-caspase 8; set-up: species or system HPV 16
T1 construct: made in house
Protocol: Figure 2 3-(1H-indol-1yl)propan-1-amine (1), three benzimidazole derivatives (2–4), and spinacine (5) inhibit protein–protein interactions. Five compounds at the indicated concentrations (1.4 μM–3.2 mM) were tested using our bead-based screening assay for their ability to inhibit three different protein/protein interactions: (a) GST-E6/His-caspase 8; (b) GST-E6/HisE6AP; and (c) GST-caspase 8/His-caspase 8. Binding in the presence of 1.4 μM of the test compound was set at 100%. Experiments were performed in triplicate, and error bars indicate the S.D.
The construction of the pGEX-E6, pTriEx-E6AP, and pTriEx-Caspase-8 DED plasmids has been reported.[33] Expression and purification of GSTE6, His-E6AP, and His-Caspase-8 DED were carried out as previously described.[33], [37] GST-tagged and His-tagged proteins were diluted into GST dilution buffer (PBS pH 8.0, 5% glycerol, 2 mM DTT) and His dilution buffer (20 mM Hepes pH 7.4, 150 mM NaCl, 2 mMKCl, 5% glycerol, 2 mM DTT), respectively. Protein concentration was measured using Coomassie Plus – The Better Bradford Assay Reagent (Thermo Scientific, Waltham, MA, USA). Purity of the isolated proteins was estimated following separation by sodium dodecyl sulfate-polyacrylamide gel electrophoresis (SDS-PAGE) and Coomassie staining.
AlphaScreen Technology was used to assess the interactions between GST-E6, GST-caspase 8, His-E6AP, and His-caspase 8. Binding assays were performed in white 384-well plates (Perkin-Elmer) in a total volume of 25 μl as previously described.[33] Briefly, 5 μl (50 ng) of GST-E6 and 5 μl (87.5 ng) of His-caspase 8 were included in each reaction mixture with 5 μl blocking buffer (0.5 mg BSA, 0.5% Tween 20 in PBS) in the absence or presence of 10 μM of each test chemical. Members of the library were present at 10 μM in DMSO. After a 1-h incubation of the mixture at room temperature, 5 μl donor beads and 5 μl acceptor beads (Perkin-Elmer) were added to each well according to the manufacturer's protocol. The mixture was incubated in the dark at room temperature overnight, and the emitted signal was detected using the Envision Multilabel plate reader (Perkin-Elmer). In the presence of test chemicals, the binding affinity was calculated as a percentage of the binding in the presence of carrier only (DMSO).

T1 sequence (P03126 whole entry): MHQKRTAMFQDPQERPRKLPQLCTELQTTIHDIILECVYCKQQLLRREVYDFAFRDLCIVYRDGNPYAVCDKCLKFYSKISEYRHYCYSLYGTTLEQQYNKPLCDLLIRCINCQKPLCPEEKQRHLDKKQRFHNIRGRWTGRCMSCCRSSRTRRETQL

Structure (SMILES) | sensitivity of C33A cells to TRAIL-mediated apoptosis (C33A cells) | EC50 (GST-E6/His-caspase 8) [µM]
O=c1c(O)c(-c2cc(O)c(O)c(O)c2)oc2cc(O)cc(O)c12 [Myricetin, myricetin, reference compound] | remained resistant | 
O=C(O)C1Cc2[nH]cnc2CN1 (centres unmarked) [Spinacine (5), 4,5,6,7-tetrahydro-1H-imidazo[4,5–c]pyridine-6-carboxylic acid] |  | 17

From paper PMC5154303, “Flavonol and imidazole derivatives block HPV16 E6 activities and reactivate apoptotic pathways in HPV^+ cells” (Cell Death & Disease, 2016)
